One assay deals with T1, NADPH oxidase 1 (Homo sapiens, UniProt Q9Y5S8).
T1 sequence (Q9Y5S8 whole entry): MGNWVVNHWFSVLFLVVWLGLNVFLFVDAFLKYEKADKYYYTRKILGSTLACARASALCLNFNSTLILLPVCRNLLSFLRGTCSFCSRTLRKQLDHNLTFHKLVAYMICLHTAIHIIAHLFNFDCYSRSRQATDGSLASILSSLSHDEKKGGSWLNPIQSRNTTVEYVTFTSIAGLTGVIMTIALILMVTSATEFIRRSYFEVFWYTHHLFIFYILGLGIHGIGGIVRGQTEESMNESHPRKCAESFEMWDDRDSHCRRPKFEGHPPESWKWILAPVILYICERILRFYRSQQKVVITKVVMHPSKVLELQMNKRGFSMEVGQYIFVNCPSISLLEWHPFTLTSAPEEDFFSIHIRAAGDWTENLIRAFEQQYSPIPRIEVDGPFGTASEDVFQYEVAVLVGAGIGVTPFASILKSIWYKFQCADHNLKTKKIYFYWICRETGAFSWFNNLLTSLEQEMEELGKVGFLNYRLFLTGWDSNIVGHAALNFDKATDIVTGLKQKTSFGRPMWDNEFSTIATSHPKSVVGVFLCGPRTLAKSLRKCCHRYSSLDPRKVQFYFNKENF
Description: Late-stage luminescence-based cell-based dose response assay to identify inhibitors of NADPH oxidase 1 (NOX1): Purchased analogs 2. Type of assay: functional.

Assay [1] deals with Voltage-gated inwardly rectifying potassium channel KCNH2 (Homo sapiens, UniProt Q12809). Description: concentration-dependent hERG rescue from blockers – cell-based, thallium flux, dose response (AID 2121). The format is ADME.
The nature of assay [2]: A High Throughput Confirmatory Assay used to Identify Novel Compounds that Inhibit Mycobacterium Tuberculosis in the absence of Glycerol. The format is functional.
The nature of assay [3]: Trypanosoma cruzi growth suppression in host cells – NIH3T3 host cells, beta-gal luminescence, confirmation (AID 2044).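 Note: intracellular parasites grown in NIH/3T3 mouse fibroblasts as host cells; luminescent beta-galactosidase reporter signal from transgenic T. cruzi replicating inside host cells; inhibitors lower the luminescence signal.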 Type of assay: functional, cell-based.
Assay [4] can be described thus: NIH3T3 cell viability loss – ATP luminescence, mouse fibroblasts, counter-screen, dose response (AID 2010).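 Note: cells exposed to compound for about 90 hours before reading.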 The format is functional, cell-based.
Assay [5] addresses T2, Mannose-6-phosphate isomerase (Homo sapiens, UniProt P34949).
T2 sequence (P34949 whole entry): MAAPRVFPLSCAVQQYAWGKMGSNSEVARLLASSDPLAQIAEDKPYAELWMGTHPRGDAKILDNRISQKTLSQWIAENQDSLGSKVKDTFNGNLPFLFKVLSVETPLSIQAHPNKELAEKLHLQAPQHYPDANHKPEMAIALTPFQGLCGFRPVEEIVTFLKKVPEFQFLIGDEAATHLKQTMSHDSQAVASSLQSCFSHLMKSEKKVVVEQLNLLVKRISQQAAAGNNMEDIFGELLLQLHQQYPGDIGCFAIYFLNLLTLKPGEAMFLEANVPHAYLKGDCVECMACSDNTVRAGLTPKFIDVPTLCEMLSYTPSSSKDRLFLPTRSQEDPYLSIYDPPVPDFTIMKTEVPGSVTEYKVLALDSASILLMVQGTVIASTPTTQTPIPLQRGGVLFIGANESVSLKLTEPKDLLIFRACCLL
Description: MPI inhibition at elevated mannose 6-phosphate – biochemical, fluorescence intensity, high mannose 6-phosphate, primary screen (AID 1220).

In the next assay the target is Trypsin (Sus scrofa, UniProt P00761). Description: trypsin protease activity blockade – biochemical, quenched peptide fluorescence, cherry-pick, selectivity assay for Rce1 protease inhibitor project, dose response (AID 488789).
Trypsin, sequence (P00761 whole entry): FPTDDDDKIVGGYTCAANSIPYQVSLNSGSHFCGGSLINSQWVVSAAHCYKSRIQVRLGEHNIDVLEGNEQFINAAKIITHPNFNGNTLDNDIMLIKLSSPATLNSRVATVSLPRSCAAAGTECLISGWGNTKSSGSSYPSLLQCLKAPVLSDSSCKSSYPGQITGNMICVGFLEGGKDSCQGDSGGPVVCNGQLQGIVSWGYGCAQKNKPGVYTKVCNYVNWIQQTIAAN
In a further assay the target is T3, CAAX prenyl protease 2 (Homo sapiens, UniProt Q9Y256).
T3 sequence (Q9Y256 whole entry): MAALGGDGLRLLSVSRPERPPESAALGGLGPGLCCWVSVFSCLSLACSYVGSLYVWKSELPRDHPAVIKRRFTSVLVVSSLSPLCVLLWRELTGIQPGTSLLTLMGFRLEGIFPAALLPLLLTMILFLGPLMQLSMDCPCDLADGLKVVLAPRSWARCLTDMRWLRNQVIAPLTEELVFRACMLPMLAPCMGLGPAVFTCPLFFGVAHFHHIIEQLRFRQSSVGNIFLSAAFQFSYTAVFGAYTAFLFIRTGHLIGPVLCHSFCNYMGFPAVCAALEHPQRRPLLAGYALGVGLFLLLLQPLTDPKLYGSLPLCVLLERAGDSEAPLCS
Kind of assay: inhibition of Ras-converting CAAX protease Rce1 – biochemical, yeast membranes, quenched-peptide fluorescence, cherry-pick, dose response (AID 588849).

A short description of assay [6]: M. tuberculosis H37Rv growth inhibitors, H37Rv strain (AID 1626). The format is functional.
Assay [7] has as its target Solute carrier family 12 member 2/member 5 (Homo sapiens, UniProt P55011+Q9H2X9). Kind of assay: KCC2 and NKCC1 inhibition by rubidium flux, cell-based, NKCC1 counter-screen (AID 1734). The format is functional, HEK293.
The nature of assay [8]: antiviral protection against BTV-induced cell death – arbovirus, BSR cells, confirmation (AID 1250).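 Note: protection from viral cytopathic effect measured as cell viability by ATP luminescence.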 Type of assay: functional.
The target of assay [9] is Induced myeloid leukemia cell differentiation protein Mcl-1 (Homo sapiens, UniProt Q07820). Type of assay: functional.
The target of a further assay is Estrogen receptor (Homo sapiens, UniProt P03372).
Estrogen receptor, sequence (P03372 whole entry): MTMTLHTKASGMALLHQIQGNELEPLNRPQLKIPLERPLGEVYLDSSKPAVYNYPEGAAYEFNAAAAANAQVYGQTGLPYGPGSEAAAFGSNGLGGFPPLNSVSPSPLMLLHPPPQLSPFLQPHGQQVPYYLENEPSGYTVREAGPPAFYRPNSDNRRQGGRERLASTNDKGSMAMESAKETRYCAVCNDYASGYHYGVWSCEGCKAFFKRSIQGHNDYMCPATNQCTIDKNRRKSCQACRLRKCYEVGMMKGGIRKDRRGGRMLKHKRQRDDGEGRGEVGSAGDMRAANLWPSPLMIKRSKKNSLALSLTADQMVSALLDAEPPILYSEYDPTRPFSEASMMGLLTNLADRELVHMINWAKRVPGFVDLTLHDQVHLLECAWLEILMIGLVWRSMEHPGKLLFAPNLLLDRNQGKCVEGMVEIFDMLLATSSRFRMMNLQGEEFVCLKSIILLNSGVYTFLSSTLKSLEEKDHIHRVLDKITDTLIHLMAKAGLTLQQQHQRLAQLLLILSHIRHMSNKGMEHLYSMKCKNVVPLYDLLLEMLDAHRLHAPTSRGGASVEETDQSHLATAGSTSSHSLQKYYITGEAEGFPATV
For the next assay, the target named is Estrogen receptor beta (Homo sapiens, UniProt Q92731).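 Note: recombinant ER-beta bound to coactivator SRC1 peptide in presence of estradiol agonist; inhibitors block coactivator peptide binding and lower the FRET signal.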
For assay [10], the target named is Glyceraldehyde-3-phosphate dehydrogenase (Homo sapiens, UniProt P04406).
Glyceraldehyde-3-phosphate dehydrogenase, sequence (P04406 whole entry): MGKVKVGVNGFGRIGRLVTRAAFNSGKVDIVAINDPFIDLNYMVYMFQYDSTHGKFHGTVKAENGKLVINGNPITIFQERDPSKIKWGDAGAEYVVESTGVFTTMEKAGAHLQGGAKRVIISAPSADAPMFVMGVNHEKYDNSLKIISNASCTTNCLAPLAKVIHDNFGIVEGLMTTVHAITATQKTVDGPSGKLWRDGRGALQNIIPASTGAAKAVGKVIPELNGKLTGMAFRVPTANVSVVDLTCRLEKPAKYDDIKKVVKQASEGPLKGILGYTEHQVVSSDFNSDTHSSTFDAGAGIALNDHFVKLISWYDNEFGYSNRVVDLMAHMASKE
Assay [11] deals with T4, Bcl-2-related protein A1 (Mus musculus, UniProt Q07440).
T4 sequence (Q07440 whole entry): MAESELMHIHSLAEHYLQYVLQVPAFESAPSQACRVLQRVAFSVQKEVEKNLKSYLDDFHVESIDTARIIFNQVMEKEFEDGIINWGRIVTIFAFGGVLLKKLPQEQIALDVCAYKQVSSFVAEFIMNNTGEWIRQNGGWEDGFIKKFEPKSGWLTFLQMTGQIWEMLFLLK
Description: small-molecule antagonists of Bfl-1/BH3 interaction – biochemical, TR-FRET, mouse Bfl-1, confirmation (AID 621).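 Note: TR-FRET binding of GST-Bfl-1 to FITC-labelled Bid peptide via terbium antibody.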

Assay [12] concerns the target T4, Bcl-2-related protein A1. Description: Bfl-1 binding inhibitors, SAR follow-up, biochemical, fluorescence polarization (AID 1070). On the technique in general: In fluorescence polarisation assays a small probe gives low polarisation when free and higher when bound to something large.
For assay [13], the target named is Peroxisome proliferator-activated receptor gamma/Nuclear receptor coactivator 1 (Homo sapiens, UniProt P37231). Kind of assay: TR-FRET dose response biochemical High Throughput Screening assay for agonists of the steroid receptor coactivator 1 (SRC-1) recruitment by the peroxisome proliferator-activated receptor gamma (PPAR gamma): non-selective agonists. [Related pubchem assays (depositor defined):AID1300, AID1808, AID504735, AID631]. The format is protein assay.

In assay [14] the target is Peroxisome proliferator-activated receptor gamma/Nuclear receptor coactivator 3 (Homo sapiens, UniProt P37231). Kind of assay: TR-FRET dose response biochemical High Throughput Screening assay for agonists of the steroid receptor coactivator 3 (SRC-3) recruitment by the peroxisome proliferator-activated receptor gamma (PPAR gamma): non-selective agonists. [Related pubchem assays: 1301 (Confirmation screen.), 1048 (Primary screen.)]. Type of assay: functional. Background: TR-FRET usually uses a lanthanide donor and a delayed reading to cut background.
Peroxisome proliferator-activated receptor gamma/Nuclear receptor coactivator 3, sequence (P37231 whole entry): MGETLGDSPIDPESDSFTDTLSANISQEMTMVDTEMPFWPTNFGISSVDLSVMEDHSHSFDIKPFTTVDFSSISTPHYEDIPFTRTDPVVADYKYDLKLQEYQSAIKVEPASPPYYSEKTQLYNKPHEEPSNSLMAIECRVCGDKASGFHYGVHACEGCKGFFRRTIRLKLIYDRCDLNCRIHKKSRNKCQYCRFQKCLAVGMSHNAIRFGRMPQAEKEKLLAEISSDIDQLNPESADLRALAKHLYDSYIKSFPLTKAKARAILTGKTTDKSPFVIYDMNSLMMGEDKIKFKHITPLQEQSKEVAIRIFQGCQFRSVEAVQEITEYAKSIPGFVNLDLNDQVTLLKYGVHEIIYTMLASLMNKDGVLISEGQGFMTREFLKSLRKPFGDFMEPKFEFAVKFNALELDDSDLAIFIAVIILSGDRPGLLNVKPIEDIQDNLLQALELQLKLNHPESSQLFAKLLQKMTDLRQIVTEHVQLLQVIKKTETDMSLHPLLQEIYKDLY
Peroxisome proliferator-activated receptor gamma/Nuclear receptor coactivator 3, sequence (Q9Y6Q9 whole entry, further chain): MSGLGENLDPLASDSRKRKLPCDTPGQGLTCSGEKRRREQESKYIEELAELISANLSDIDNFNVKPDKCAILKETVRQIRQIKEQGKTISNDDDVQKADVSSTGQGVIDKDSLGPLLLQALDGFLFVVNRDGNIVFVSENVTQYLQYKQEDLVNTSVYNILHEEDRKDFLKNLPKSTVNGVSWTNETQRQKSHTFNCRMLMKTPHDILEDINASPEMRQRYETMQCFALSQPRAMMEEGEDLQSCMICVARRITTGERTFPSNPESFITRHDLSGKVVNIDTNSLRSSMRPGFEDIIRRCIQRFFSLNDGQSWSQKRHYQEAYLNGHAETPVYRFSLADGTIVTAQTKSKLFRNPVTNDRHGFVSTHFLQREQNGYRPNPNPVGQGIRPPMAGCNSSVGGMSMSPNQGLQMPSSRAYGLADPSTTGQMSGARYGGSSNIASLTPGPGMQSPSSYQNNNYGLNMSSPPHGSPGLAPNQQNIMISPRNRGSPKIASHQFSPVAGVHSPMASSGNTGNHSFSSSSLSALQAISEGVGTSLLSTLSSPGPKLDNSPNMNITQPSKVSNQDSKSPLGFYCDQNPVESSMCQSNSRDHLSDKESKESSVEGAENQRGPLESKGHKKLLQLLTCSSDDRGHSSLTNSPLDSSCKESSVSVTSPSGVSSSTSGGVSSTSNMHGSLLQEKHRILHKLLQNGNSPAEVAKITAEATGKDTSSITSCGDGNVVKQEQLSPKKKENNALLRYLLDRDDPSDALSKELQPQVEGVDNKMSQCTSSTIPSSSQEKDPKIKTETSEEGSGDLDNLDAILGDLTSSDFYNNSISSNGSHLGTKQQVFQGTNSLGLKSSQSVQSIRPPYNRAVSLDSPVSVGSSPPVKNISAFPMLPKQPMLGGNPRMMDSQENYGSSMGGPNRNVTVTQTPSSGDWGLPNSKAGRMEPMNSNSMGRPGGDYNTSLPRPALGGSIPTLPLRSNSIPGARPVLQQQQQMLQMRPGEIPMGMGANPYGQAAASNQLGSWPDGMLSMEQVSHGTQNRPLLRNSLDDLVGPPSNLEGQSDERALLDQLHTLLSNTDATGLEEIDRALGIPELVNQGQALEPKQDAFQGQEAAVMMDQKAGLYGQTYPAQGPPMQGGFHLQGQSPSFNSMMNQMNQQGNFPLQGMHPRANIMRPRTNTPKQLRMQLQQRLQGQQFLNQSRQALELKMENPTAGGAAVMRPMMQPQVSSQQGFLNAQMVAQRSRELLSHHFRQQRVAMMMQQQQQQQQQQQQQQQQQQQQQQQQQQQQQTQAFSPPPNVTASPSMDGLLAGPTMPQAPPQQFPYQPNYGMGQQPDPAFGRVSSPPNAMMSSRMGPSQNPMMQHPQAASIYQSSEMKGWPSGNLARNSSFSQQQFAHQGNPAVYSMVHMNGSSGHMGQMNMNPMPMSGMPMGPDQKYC

In assay [15] the target is Peroxisome proliferator-activated receptor gamma/Nuclear receptor corepressor 2 (Homo sapiens, UniProt P37231+Q9Y618). Description: Counterscreen for NR2E3 inverse agonists: TR-FRET-based biochemical high throughput dose response assay to identify inverse agonists of the interaction between peroxisome proliferator-activated receptor gamma (PPARg) and nuclear receptor co-repressor 2 (NCOR2). The format is functional. (The purpose of a counterscreen is to sort out artefacts and off-target activity.)

In assay [16] the target is Photoreceptor-specific nuclear receptor (Homo sapiens, UniProt Q9Y5X4). Description: ligands suppressing NR2E3 nuclear receptor activity – biochemical, TR-FRET, dose response (AID 463256). Type of assay: functional.
Assay [17] deals with Peroxisome proliferator-activated receptor gamma/Nuclear receptor coactivator 2 (Homo sapiens, UniProt P37231). Description: TR-FRET dose response biochemical High Throughput Screening assay for agonists of the steroid receptor coactivator 2 (SRC-2) recruitment by the peroxisome proliferator-activated receptor gamma (PPAR gamma): non-selective agonists. [Related pubchem assays: 1297, 1032 ]. The format is functional.
Peroxisome proliferator-activated receptor gamma/Nuclear receptor coactivator 2, sequence (P37231 whole entry): as the sequence (P37231 whole entry) above
Peroxisome proliferator-activated receptor gamma/Nuclear receptor coactivator 2, sequence (Q15596 whole entry, further chain): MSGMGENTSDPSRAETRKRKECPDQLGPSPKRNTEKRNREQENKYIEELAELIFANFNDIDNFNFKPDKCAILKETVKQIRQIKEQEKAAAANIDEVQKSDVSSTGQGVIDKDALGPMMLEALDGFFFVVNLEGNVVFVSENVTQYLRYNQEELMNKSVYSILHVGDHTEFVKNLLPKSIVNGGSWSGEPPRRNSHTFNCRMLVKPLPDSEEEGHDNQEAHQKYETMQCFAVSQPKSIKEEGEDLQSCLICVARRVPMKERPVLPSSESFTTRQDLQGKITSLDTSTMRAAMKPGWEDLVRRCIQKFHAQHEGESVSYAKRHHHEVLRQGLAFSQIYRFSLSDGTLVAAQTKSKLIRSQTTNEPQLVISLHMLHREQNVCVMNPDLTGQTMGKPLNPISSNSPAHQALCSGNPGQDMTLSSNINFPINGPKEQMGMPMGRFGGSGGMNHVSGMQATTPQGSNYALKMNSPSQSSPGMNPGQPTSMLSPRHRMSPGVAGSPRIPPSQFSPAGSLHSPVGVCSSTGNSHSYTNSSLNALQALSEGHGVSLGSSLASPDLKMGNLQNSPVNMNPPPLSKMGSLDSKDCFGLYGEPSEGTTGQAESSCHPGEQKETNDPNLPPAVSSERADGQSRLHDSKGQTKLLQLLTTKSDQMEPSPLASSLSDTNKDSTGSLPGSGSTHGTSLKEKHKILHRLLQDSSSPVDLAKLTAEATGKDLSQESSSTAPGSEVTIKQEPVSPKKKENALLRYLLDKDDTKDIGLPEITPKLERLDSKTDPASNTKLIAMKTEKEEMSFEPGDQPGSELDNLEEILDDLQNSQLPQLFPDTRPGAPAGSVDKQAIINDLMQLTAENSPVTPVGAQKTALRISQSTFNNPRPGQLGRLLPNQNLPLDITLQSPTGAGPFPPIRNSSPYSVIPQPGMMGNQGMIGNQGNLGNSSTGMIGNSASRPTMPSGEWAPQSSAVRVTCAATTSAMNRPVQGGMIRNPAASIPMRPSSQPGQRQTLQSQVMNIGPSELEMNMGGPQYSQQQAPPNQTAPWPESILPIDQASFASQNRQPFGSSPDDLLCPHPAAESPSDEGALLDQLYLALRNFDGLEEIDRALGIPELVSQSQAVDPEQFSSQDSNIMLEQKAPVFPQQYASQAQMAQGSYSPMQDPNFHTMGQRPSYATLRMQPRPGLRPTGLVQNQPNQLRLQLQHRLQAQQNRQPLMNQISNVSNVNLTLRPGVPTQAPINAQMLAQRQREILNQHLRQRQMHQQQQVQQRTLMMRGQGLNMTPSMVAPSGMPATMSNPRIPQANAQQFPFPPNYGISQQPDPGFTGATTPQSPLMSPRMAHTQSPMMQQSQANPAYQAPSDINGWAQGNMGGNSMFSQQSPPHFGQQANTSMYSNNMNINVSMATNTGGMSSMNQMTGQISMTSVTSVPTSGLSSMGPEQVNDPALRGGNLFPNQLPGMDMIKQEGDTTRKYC

Assay [18] concerns the target T5, Neuropeptide Y receptor type 2 (Homo sapiens, UniProt P49146).
T5 sequence (P49146 whole entry): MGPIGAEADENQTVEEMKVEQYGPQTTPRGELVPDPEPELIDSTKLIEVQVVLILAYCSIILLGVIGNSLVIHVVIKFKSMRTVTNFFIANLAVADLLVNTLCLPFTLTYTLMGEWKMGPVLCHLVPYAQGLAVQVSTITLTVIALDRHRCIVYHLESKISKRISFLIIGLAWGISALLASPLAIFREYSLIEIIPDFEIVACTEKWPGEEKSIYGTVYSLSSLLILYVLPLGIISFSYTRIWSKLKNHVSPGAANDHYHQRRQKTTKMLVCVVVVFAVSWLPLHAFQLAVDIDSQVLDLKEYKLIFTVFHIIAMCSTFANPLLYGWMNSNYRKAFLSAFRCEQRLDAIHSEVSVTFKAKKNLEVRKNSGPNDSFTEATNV
Kind of assay: IC50 for human NPY-Y2 blockade – cell-based, counter-screen for NPY-Y1 antagonist project, dose response (AID 1278). Type of assay: functional.

Assay [19] concerns the target T6, Neuropeptide Y receptor type 1 (Homo sapiens, UniProt P25929).
T6 sequence (P25929 whole entry): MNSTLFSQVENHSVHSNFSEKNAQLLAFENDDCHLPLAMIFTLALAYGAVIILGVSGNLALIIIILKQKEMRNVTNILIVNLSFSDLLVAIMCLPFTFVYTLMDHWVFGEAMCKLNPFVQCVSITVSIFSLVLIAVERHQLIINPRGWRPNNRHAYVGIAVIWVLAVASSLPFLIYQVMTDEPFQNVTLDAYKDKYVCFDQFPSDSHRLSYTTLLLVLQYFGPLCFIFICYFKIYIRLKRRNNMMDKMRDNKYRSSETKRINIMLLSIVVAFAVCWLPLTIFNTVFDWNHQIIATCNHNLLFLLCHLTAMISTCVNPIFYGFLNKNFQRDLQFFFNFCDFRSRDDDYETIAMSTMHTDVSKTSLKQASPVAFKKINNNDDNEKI
Kind of assay: IC50 of human NPY-Y1 blockers – cell-based, dose response (AID 1277). The format is functional.

Assay [20] deals with 5-hydroxytryptamine receptor 1E (Homo sapiens, UniProt P28566). Kind of assay: Counterscreen assay for S1P3 antagonists: Dose response cell-based high throughput screening assay to identify antagonists of the 5-Hydroxytryptamine Receptor Subtype 1E (5HT1E). [Related pubchem assays: 1429, 485 ]. Type of assay: functional.
Assay [21] has as its target Sphingosine 1-phosphate receptor 3 (Homo sapiens, UniProt Q99500). Kind of assay: Dose response cell-based high throughput screening assay for antagonists of the Sphingosine 1-Phosphate Receptor 3 (S1P3). [Related pubchem assays: 1429, 485 ]. The format is functional.

Calls of active or inactive are those of the source.

In general, IC50 refers to the midpoint of a concentration-inhibition curve. Broadly, the EC50 is the concentration that produces a half-maximal response. For orientation: AC50 means the midpoint of the concentration-response curve, whichever way the signal moves.

On to `C=C(NNc1c(F)c(F)nc(F)c1F)c1ccc(OC)cc1`, for which the IC50 against NADPH oxidase 1 is > 17 µM (not active).

In the case of `CCOc1ccccc1NC(=O)C(=O)CC(=O)c1ccc(OC)cc1`, the EC50 in assay [1] was 3.01 µM (active).

For `CCCCNc1nc(N(C)c2ccccc2)nc(-n2ccnc2)n1`, in assay [2], the 50% inhibitory concentration (IC50) was > 100 µM (active). In addition, the EC50 in [3] was 0.55 µM (active); in assay [4], > 30 µM (not active).

In the case of `COc1cc2c(C#N)c(N3CCCCC3)nc(N)c2c(N)n1`, in assay [5], the 50% inhibitory concentration (IC50) was > 50 µM (not active). Besides, the AC50 on Trypsin is 13.6 µM (active); on CAAX prenyl protease 2, 20 µM (active).

Regarding `O=C(OCC(=O)N1CCN(C(=O)c2ccco2)CC1)c1sc2ccccc2c1Cl`, the IC50 was > 100 µM (active) in assay [6] and 24 µM (active) in assay [7].

Take `CN1CCN(S(=O)(=O)c2ccc(NC(=S)NC(=O)c3ccc(Cl)cc3)cc2)CC1`: the IC50 in assay [8] is > 100 µM (active); in [9], 4.19 µM (active).

As for `CCOC(=O)C1=C(O)/C(=C\c2ccc(CNC(=O)C(=O)Nc3ccc(C)c(C)c3)o2)N=C1C`, the IC50 against Estrogen receptor is on record as 40.5 µM (not active); on Estrogen receptor beta it was > 50 µM (not active).

With `O=C1C(Cl)=C(N2CCOCC2)C(=O)N1c1c(Cl)cccc1Cl`, the IC50 in assay [10] is > 10 µM (inconclusive); against Bcl-2-related protein A1 [11], > 100 µM (not active); on Bcl-2-related protein A1 [12], > 100 µM (not active).

Turning to `O=C(COc1ccc2ccccc2c1)NCCNC(=O)COc1ccc2ccccc2c1`, the EC50 was 8.38 µM (active) in assay [13], 47.8 µM (not active) in [14] and 8.67 µM (active) in [17]. In addition, the IC50 is 5.82 µM (active) in assay [15] and 4.75 µM (active) in [16].

As to `CC1=CC(C)(C)N(C(=O)CNC2CCCCC2)c2cc(C)ccc21`, the IC50 is 12.3 µM (not active) in assay [18] and 6.84 µM (active) in [19].

For the molecule `Cc1ccc(NC(=O)C(OC(=O)c2ccccc2Cl)c2ccccc2)cc1Cl` (stereo unspecified), the results for the IC50 in [20] and in assay [21] were 5.28 µM (active) and 9.24 µM (active), respectively.

Source of the values: ChEMBL document CHEMBL1201862, “PubChem BioAssay data set” (2004).
